Test results published in patent US11912668B2, “GCN2 and perk kinase inhibitors and methods of use thereof” (Deciphera Pharmaceuticals, LLC, priority 2020, dated 2024).

Experiments:
GCN2 kinase = GCN2 kinase (Homo sapiens (Human), UniProt Q9P2K8); assay: Biochemical assay for GCN2 (TR-FRET kinase activity assay); conditions: 1 mM ATP, 3-hour incubation
Outline: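 TR-FRET assay with 2 nM GCN2, 130 nM GFP-eIF2α substrate, 0.2 mg/mL E. coli tRNA and 1 mM ATP; compounds (0.5% DMSO) reacted 3 h. Stopped with 20 mM EDTA plus 2 nM Tb-anti-peIF2α (pSer52), 60 min RT; 520/490 ratio converted to % inhibition, IC50 from four-parameter fit.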

PERK kinase = PERK kinase (Homo sapiens (Human), UniProt Q9NZJ5); assay: Biochemical assay for PERK (coupled pyruvate kinase/lactate dehydrogenase assay); conditions: 1 mM ATP, rate from 2-3 h time frame
Chain of PERK kinase (Q9NZJ5 other isoform, or with tags, fused parts or gaps): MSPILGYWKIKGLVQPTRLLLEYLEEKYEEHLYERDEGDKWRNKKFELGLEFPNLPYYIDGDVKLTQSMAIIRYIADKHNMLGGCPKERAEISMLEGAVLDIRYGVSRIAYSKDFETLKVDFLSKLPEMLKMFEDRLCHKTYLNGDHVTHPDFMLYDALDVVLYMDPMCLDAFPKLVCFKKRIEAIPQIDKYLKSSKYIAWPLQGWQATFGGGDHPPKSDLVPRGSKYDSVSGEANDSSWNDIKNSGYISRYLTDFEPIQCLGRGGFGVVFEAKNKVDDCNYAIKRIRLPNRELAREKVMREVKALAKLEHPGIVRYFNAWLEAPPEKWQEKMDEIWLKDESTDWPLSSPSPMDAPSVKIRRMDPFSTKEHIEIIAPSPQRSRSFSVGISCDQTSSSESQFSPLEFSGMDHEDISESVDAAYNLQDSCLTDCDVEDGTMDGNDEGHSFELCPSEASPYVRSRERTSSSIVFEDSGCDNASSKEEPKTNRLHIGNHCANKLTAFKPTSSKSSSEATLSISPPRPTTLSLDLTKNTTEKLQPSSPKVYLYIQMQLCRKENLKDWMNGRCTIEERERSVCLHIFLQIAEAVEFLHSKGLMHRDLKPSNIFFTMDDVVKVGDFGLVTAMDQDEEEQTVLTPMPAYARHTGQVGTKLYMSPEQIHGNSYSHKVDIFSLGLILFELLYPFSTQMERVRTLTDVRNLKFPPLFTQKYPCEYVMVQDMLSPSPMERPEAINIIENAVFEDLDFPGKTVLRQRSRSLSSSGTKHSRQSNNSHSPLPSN
Outline: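 Coupled pyruvate kinase/lactate dehydrogenase readout of ATP hydrolysis via NADH oxidation (A340), 10 nM PERK, 0.25 mg/mL myelin basic protein, 1 mM ATP, pH 7.5 Tris/MgCl2 buffer, 1% DMSO. Absorbance followed 6 h at 30° C; rate from the 2-3 h window, normalised to no-compound and known-inhibitor controls, IC50 fitted.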

CCRF-CEM leukemia cells = assay: CCRF-CEM ASNase cell proliferation assay, phenotypic assay for cellular inhibition of GCN2; type: cell-based; conditions: Homo sapiens; ASNase treated CCRF-CEM cells, 1 mU/mL ASNase, 72 h
Procedure: CCRF-CEM leukemia cells (catalog #CCL-116) were obtained from the American Type Culture Collect (ATTC, Manassas, VA). Cells were grown in RPMI-1640 medium supplemented with 10% heat-inactivated fetal bovine serum (Invitrogen, Carlsbad, CA) and 1% Penicillin/Streptomycin/L-Glutamine at 37° C., 5% CO2, and 95% humidity. Cells were expanded until reaching one million cells per mL at which time they are subcultured or harvested for assay use. Ten thousand cells per well in 200 μL RPMI-1640 supplemented with 10% heat-inactivated fetal bovine serum and 1% Penicillin/Streptomycin were dispensed into a 96-well black clear bottom plate. A serial dilution of test compound and 1 mU/mL ASNase was added in triplicate and plates were incubated for 72 h at 37° C., 5% CO2, and 95% humidity. At the end of the incubation, 40 μL of a […] solution of resazurin (Sigma, St. Louis, MO) in PBS was added to each well of the plate and plates were incubated for an additional 6 h at 37° C., 5% CO2, and 95% humidity. Plates were read on a Synergy2 or equivalent reader (Biotek, Winooski VT) using an excitation of 540 nm and an emission of 600 nm. Data was analyzed using GraphPad Prism software (GraphPad, San Diego, CA) to calculate IC50 values.

[1] = tested on: phospho-GCN2 (Thr899) in HCT116 colorectal cancer cells; assay: HCT116 amino acid starved (-AA) phospho-GCN2 assay (Western blot); type: cell-based; conditions: Homo sapiens, HCT-116, 4 h, read-out: HCT116-AA pGCN2 Western Blot
Procedure: (§1) HCT116 colorectal cancer cells (catalog #CCL-247) were obtained from the American Type Culture Collect (ATTC, Manassas, VA). Briefly, cells were grown in RPMI 1640 supplemented with 10% heat inactivated fetal bovine serum (Invitrogen, Carlsbad, CA) and 1% Penicillin/Streptomycin/L-Glutamine at 37° C., 5% CO2, and 95% humidity. Cells were expanded until reaching 70-95% confluency at which point they were subcultured or harvested for assay use. Cells were seeded in 12-well culture plate at five hundred thousand cells per well in 1 mL complete growth medium and incubated overnight at 37° C., 5% CO2, and 95% humidity. The next day each well was replaced with 1 mL Earle's Balanced Salt Solution (EBSS, Invitrogen, Carlsbad, CA) supplemented with 10% Dialyzed Fetal Bovine Serum, 5.5 mM Glucose, 1% Penicillin/Streptomycin and 1% Vitamin solution (thermo #11120052). A serial dilution of test compound was dispensed into well. Plates were incubated for 4 h at 37° C., 5% CO2, and 95% humidity. At the end of the incubation, cells were washed with PBS supplemented with 1× Halt protease inhibitor, 1× Halt phosphatase inhibitor, 1× Sigma phosphatase inhibitor cocktail 2 and 1×EDTA and then lysed with M-PER Mammalian Protein Extraction Reagent supplemented with 3× of the inhibitor mix as described above. Cell lysates were sonicated with water bath sonicator (Qsonica, Newtown, CT) and supernatants were boiled with SDS buffer and reducing agent. Western blot was performed on each lysate to quantify phospho-GCN2 (Thr899), total GCN2, ATF4 and beta-Actin. Membranes were imaged with LI-COR Odyssey CLx Imaging System (LI-COR, Lincoln, NE). Data were analyzed using GraphPad Prism software (GraphPad, San Diego, CA) to calculate IC50 values.

[2] = tested on: ATF4 in HCT116 colorectal cancer cells; assay: HCT116 amino acid starved (-AA) ATF4 assay (Western blot); type: cell-based; conditions: Homo sapiens, HCT-116, 4 h
Procedure: as §1

[3] = tested on: ATF4 in CCRF-CEM leukemia cells (PERK); assay: CCRF-CEM TG ATF4 ELISA, phenotypic assay for cellular inhibition of PERK preactivated by thapsigargin; type: cell-based; conditions: Homo sapiens; Thapsigargin (1 μM) stimulated CCRF-CEM cells
Procedure: CCRF-CEM leukemia cells (catalog #CCL-116) were obtained from the American Type Culture Collection (ATTC, Manassas, VA). Briefly, cells were grown in RPMI-1640 medium supplemented with 10% heat-inactivated fetal bovine serum (Invitrogen, Carlsbad, CA) and 1% Penicillin/Streptomycin/L-Glutamine at 37° C., 5% CO2, and 95% humidity. Cells were expanded until reaching one million cells per mL at which time they were subcultured or harvested for assay use. One million five hundred thousand cells per well in 1 mL complete growth medium were dispensed into 12-well plates and incubated overnight. A serial dilution of test compound was added and cells were incubated at 37° C., 5% CO2, and 95% for three hours, then 1 μM thapsigargin was added and cells were incubated for an additional hour at 37° C., 5% CO2, and 95%. Cells were lysed then ATF4 levels were measured using an ELISA assay (Proteintech, Rosemont, IL). Absorbance was measured at 450 nm and 544 nM using a Synergy2 or equivalent reader (Biotek, Winooski VT). Data was analyzed using PRISM software (Graphpad, San Diego, CA) to calculate IC50 values.

Chain of GCN2 kinase (Q9P2K8 whole entry): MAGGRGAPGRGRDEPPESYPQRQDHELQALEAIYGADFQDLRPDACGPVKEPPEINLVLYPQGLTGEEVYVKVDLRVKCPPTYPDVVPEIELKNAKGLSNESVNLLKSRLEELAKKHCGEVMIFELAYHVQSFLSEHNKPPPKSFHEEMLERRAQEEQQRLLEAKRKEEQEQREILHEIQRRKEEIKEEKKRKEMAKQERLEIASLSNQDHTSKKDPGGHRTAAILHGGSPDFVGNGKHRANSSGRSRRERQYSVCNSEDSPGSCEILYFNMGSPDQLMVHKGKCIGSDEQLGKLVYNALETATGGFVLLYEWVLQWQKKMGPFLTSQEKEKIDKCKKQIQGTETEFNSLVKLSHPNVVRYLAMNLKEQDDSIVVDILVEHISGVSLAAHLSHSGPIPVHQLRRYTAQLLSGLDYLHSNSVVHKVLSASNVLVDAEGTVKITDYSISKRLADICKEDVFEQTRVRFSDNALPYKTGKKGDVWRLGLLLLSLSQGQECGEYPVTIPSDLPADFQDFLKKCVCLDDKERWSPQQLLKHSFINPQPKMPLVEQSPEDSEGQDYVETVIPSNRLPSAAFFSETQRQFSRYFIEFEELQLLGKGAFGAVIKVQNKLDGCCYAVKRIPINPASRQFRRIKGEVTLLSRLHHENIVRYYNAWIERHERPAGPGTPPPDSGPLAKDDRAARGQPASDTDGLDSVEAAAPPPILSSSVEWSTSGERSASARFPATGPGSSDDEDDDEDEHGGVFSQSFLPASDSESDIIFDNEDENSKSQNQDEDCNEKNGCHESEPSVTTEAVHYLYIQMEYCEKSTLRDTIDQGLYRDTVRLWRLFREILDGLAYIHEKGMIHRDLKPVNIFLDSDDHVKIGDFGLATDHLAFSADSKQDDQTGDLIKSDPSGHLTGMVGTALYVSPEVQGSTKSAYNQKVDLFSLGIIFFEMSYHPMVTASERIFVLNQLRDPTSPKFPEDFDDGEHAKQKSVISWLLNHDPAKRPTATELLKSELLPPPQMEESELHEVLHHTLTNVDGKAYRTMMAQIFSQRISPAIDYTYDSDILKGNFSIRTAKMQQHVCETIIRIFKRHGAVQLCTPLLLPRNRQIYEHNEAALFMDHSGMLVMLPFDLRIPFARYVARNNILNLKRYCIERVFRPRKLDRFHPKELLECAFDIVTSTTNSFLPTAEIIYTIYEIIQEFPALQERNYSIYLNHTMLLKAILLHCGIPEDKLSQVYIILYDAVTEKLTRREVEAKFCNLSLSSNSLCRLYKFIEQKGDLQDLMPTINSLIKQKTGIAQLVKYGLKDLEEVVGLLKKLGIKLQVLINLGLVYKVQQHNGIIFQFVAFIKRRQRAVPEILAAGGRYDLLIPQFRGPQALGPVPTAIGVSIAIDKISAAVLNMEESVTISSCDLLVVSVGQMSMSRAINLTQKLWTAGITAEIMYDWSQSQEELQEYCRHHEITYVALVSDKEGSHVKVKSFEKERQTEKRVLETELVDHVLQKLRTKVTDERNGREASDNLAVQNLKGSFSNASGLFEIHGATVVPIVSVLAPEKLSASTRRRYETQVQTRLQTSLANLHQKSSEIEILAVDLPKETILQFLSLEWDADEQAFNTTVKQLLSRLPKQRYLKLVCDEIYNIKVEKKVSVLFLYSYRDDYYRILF

Structure (SMILES) | IC50 (GCN2 kinase) [nM] | IC50 (PERK kinase) [nM] | IC50 (CCRF-CEM leukemia cells) [nM] | IC50 [1] [nM] | IC50 [2] [nM] | IC50 [3] [nM]
CNc1ncc2cc(-c3cccc(NS(=O)(=O)c4cc(Cl)cnc4NC)c3F)ccc2n1 [Example 50] | ≤ 100 | ≤ 100 | ≤ 100 | ≤ 100 | ≤ 100 | 1000 to 10000
CNc1ncc2cc(-c3cccc(NS(=O)(=O)c4cc(Cl)cnc4OC)c3C)c(C)nc2n1 [Example 51] | ≤ 100 | 100 to 500 | ≤ 100 | ≤ 100 | ≤ 100 | 1000 to 10000
CNc1ncc2cc(-c3cc(NS(=O)(=O)c4cc(Cl)cnc4OC)ccc3C)c(C)nc2n1 [Example 53] | ≤ 100 | 100 to 500 | ≤ 100 | ≤ 100 | ≤ 100 | 1000 to 10000
CNc1cc2ncc(-c3cccc(NS(=O)(=O)c4cc(Cl)cnc4OC)c3F)cc2cn1 [Example 56] | 100 to 500 | ≤ 100 | ≤ 100 | ≤ 100 | ≤ 100 | 500 to 1000
CNc1ncc2cc(-c3cc(F)cc(NS(=O)(=O)c4cc(Cl)cc(CO)c4Cl)c3)c(NC)nc2n1 [Example 57] | ≤ 100 | ≤ 100 | ≤ 100 | ≤ 100 | ≤ 100 | 1000 to 10000
COc1ncc(Cl)cc1S(=O)(=O)Nc1cccc(-c2cnc3nc(Nc4cnn(C)c4)ncc3c2)c1 [Example 59] | ≤ 100 | 100 to 500 | ≤ 100 | ≤ 100 | ≤ 100 | 1000 to 10000
CNc1ncc2cc(-c3cccc(NS(=O)(=O)c4cc(Cl)cnc4OC)c3F)c(N)nc2n1 [Example 61] | ≤ 100 | ≤ 100 | ≤ 100 | ≤ 100 | ≤ 100 | 100 to 500
CNc1ncc2cc(-c3cccc(NS(=O)(=O)c4cc(Cl)cnc4OC)c3Cl)ccc2n1 [Example 62] | ≤ 100 | ≤ 100 | ≤ 100 | ≤ 100 | 100 to 500 | 1000 to 10000
CNc1ncc2cc(-c3cc(F)cc(NS(=O)(=O)c4cc(Cl)cnc4OC)c3)c(N)nc2n1 [Example 63] | ≤ 100 | ≤ 100 | ≤ 100 | ≤ 100 | ≤ 100 | 1000 to 10000
CNc1ncc2cc(-c3cccc(NS(=O)(=O)c4cc(Cl)cnc4OC)c3)c(N)nc2n1 [Example 64] | ≤ 100 | 100 to 500 | ≤ 100 | ≤ 100 | ≤ 100 | 1000 to 10000
CNc1ncc2cc(-c3cccc(NS(=O)(=O)c4cc(Cl)cnc4OC)c3F)c(OC)nc2n1 [Example 66] | ≤ 100 | ≤ 100 | ≤ 100 | ≤ 100 | ≤ 100 | 1000 to 10000
CNc1ncc2cc(-c3cccc(NS(=O)(=O)c4cc(Cl)cnc4OC)c3Cl)c(C)nc2n1 [Example 67] | ≤ 100 | ≤ 100 | ≤ 100 | ≤ 100 | ≤ 100 | 1000 to 10000
